Source: paper PMC11024869, “The activity of antimicrobial peptoids against multidrug-resistant ocular pathogens” (Contact lens & anterior eye : the journal of the British …, 2024)
No end group written: not given here.

Columns and labels:
Trypsin = target: T1, Trypsin (Bos taurus, UniProt P00760)
T1 sequence (P00760 24-246): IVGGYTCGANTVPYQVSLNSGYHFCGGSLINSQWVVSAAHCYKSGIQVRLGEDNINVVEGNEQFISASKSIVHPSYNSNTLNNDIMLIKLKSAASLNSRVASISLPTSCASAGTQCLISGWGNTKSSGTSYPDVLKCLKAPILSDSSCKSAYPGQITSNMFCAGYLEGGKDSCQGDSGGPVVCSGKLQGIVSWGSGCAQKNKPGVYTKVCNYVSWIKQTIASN
Description: (§1) Melimine was used as positive control as it is a cationic antimicrobial peptide that can be hydrolysed by proteases. The Expasy peptide cutter module (https://web.expasy.org/peptide_cutter/) was accessed to predict which proteases might digest melimine. The susceptibility of the antimicrobial compounds to digestion by two proteases expected to digest melimine, Proteinase K (120 unit mL^−1 in 20 mM Tris HCl, pH 7.4; New England Bio Labs, Australia) and Trypsin (10,350 BAFE units/mg in 50 mM borate buffer, pH 8.5; Thermo Scientific products, Australia), was tested. The peptoids and melimine were incubated with each protease at the ratio (w/w) of 1:100 in PBS (pH 7.4) for 24 h at 37 °C. After incubation, the peptoid/melimine + protease solutions were tested for their activity against P. aeruginosa 216 which was grown overnight in TSB at 37 °C. Bacterial cells were washed three times in PBS and then resuspended in MHB OD660nm of 0.1 (equal to 1x10^8 CFU mL^−1. The bacterial suspension was then diluted in MHB to a final working concentration of 5x10^6 cells mL^−1. The diluted bacterial suspension was subsequently added to the wells containing the peptoids/melimine + protease solution and incubated for 24 h at 37 °C. Peptoids/melimine solutions alone (no proteases) were used as a positive control, while protease solutions without the peptoids/melimine were used as a negative control. Post incubation, to inhibit the activity of the proteases, the bacterial suspensions were heated at 55 °C for 10 min in a water bath. After the heating step, the absorbance of the suspensions was measured at OD660nm.

Proteinase K = Proteinase K (Parengyodontium album, UniProt P06873)
Description: as §1

Escherichia coli = conditions: cited from earlier work
Description: (§2) Peptoids act similarly to AMPs as their cationic regions interact electrostatically with the anionic membranes of bacteria and may also facilitate the targeting of intracellular DNA and ribosomal agglutination. […] For example, peptoids can have minimum inhibitory concentrations as low as 1.8 μg mL^−1 against Bacillus subtilis and 12.4 μg mL^−1 against Escherichia coli, whereas these bacteria had MICs of 4.5 μg mL^−1 and 35.6 μg mL^−1, respectively, with the AMP melittin [31] Di-guanidine peptoids, produced via acid amine-coupling between nap ...

Bacillus subtilis = conditions: cited from earlier work
Description: as §2

[1] = incubated with protease at ratio (w/w) 1:100 in PBS pH 7.4, 24 h 37 °C, then P aeruginosa 216 in MHB 24 h 37 °C, OD660nm
[2] = result in words, 24 h 37 °C, P. aeruginosa 216

Proteinase K, sequence (P06873 106-384): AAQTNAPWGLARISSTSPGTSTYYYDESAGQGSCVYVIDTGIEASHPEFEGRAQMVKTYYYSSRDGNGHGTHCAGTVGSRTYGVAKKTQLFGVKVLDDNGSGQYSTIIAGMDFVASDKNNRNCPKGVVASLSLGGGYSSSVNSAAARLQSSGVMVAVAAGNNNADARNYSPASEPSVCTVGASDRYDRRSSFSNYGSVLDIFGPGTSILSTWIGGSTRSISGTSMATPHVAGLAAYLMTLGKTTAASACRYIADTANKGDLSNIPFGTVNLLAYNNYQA

Substance	MIC after Trypsin (Trypsin; [1])	antimicrobial activity after digestion with trypsin (Trypsin; [2])	MIC after Proteinase K (Proteinase K; [1])	antimicrobial activity after digestion with proteinase K (Proteinase K; [2])	MIC (Escherichia coli) [µg/mL]	MIC (Bacillus subtilis) [µg/mL]
TLISWIKNKRKQRPRVSRRRRRRGGRRRR [Melimine, reference compound]	>250 (66) μg mL^−1	lost all of its antimicrobial activity	>250 (66) μg mL^−1	lost all of its antimicrobial activity	–	–
melittin: the AMP melittin	–	–	–	–	35.6	4.5
